Values quoted from earlier work as cited in patent publication US8440668B2, “Beta-amino heterocyclic dipeptidyl peptidase inhibitors for the treatment of type 2 diabetes” (Merck Sharp & Dohme Corp, priority 2001, dated 2013).
One block for each molecule: values may come before it.

Assays:
mouse = details: cyclophosphamide-induced neutropenia, WO 99/56753
DP-IV = target: T1, DP-IV (Homo sapiens, UniProt P27487)
T1 construct: GRF is rapidly degraded in plasma to GRF[3-44]; from tissue

rats = details: Transplantation 63, 1495-1500 (1997)

T1 sequence (P27487 39-766 limits assumed): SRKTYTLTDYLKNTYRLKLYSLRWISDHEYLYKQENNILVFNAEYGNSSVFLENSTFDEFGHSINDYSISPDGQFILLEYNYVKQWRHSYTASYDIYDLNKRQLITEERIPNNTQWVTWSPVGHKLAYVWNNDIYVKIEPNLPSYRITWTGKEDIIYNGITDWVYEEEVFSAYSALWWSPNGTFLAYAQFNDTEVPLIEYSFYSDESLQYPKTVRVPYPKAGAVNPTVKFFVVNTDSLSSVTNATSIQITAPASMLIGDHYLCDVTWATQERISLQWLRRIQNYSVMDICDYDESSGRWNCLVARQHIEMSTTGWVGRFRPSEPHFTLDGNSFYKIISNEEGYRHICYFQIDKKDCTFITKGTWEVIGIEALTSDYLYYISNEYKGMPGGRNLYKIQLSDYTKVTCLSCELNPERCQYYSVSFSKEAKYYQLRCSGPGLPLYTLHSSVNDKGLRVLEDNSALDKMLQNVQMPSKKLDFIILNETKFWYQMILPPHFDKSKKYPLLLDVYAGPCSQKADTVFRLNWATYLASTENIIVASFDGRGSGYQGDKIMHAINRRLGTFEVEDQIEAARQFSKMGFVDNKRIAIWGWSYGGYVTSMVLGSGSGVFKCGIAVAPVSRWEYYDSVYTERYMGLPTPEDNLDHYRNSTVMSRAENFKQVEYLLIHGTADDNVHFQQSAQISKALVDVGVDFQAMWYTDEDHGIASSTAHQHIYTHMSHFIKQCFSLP

Molecule: CC(C)[C@H](N)C(=O)N1CCC[C@H]1B(O)O [Val-Boro-Pro]
hematopoiesis (mouse): stimulated hematopoiesis

degradation of GRF in plasma to GRF[3-44] (DP-IV): prevented
Molecule: diprotin A

Molecule: CC(C)N1CCC(c2ccccc2)(c2ccccc2)CC1 [Prodipine, Pro-Pro-diphenyl-phosphonate]
cardiac allograft survival (rats): double cardiac allograft survival in rats from day 7 to day 14
